Bounds are passed on as bounds.

Sequence of GST tagged truncated human mutant G2019S LRRK2 (Q5S007 970-2527 G2019S): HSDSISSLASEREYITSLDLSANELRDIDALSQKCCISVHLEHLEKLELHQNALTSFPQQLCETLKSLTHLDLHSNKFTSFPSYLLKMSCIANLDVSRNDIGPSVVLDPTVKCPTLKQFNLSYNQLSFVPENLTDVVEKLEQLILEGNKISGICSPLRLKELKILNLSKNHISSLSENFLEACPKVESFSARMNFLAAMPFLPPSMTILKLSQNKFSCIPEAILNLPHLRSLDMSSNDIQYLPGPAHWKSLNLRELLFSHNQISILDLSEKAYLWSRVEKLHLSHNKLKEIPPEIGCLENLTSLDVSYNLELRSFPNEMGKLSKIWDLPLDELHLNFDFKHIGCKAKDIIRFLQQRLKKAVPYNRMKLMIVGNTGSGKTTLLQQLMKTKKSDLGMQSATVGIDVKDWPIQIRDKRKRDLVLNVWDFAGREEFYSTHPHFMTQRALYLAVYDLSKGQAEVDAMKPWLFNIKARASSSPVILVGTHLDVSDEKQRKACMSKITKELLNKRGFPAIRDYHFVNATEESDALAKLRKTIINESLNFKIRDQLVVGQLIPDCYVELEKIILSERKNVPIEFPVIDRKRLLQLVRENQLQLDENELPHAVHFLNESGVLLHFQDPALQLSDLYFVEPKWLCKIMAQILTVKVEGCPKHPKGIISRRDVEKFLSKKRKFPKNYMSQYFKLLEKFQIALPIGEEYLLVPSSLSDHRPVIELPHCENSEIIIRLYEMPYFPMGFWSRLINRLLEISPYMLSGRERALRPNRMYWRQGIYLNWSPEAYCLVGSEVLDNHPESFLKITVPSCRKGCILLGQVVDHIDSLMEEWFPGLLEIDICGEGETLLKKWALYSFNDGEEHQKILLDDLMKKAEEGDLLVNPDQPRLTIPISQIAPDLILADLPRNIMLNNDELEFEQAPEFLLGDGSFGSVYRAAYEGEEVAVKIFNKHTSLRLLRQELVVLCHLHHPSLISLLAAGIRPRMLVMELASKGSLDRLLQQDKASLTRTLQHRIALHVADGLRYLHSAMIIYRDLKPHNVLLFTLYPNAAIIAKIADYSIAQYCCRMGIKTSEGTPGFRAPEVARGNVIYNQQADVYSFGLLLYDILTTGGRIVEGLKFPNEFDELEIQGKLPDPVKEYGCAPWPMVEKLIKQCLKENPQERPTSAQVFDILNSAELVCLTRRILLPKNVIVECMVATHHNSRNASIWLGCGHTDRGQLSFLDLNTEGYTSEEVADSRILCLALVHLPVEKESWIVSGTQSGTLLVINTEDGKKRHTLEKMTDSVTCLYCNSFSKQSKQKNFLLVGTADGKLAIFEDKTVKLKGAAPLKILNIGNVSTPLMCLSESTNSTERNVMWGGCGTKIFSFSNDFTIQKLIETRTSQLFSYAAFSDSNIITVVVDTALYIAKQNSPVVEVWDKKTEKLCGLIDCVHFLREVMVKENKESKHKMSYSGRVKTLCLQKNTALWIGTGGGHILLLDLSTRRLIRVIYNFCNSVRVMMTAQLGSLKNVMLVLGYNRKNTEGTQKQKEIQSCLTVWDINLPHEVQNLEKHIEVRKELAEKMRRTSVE

One experiment concerns the target GST tagged truncated human mutant G2019S LRRK2 (Homo sapiens (Human), UniProt Q5S007, G2019S). The experiment in a line: LRRK2 Km ATP LanthaScreen Assay. The settings on record: G2019S LRRK2, 134 μM ATP (Km ATP), mean values. In kind it is biochemical. As for the experimental part:
General Experimental Information: • Unless otherwise noted, all reactions are magnetically stirred. Unless otherwise noted, when diethyl ether is used in the experiments described below, it is Fisher ACS certified material and is stabilized with BHT. Unless otherwise noted, “concentrated” and/or “solvent removed under reduced pressure” means evaporating the solvent from a solution or mixture using a rotary evaporator or vacuum pump. Unless otherwise noted, flash chromatography is carried out on a Teledyne Isco (Lincoln, NE), Analogix (Burlington, WI), or Biotage (Stockholm, SWE) automated chromatography system using a commercially available cartridge as the column. Columns may be purchased from Teledyne Isco, Analogix, Biotage, Varian (Palo Alto, CA), or Supelco (Bellefonte, PA) and are usually filled with silica gel as the stationary phase. Reverse phase prep-HPLC conditions, where used, can be found at the end of each experimental section. Aqueous solutions were concentrated on a Genevac (Ipswich, ENG) or by freeze-drying/lyophilization. Unless otherwise noted, all LRRK2 pIC50 data presented in tables refers to the LRRK2 G2019S Km ATP LanthaScreen™ assay (Life Technologies Corp., Carlsbad, CA) that is described in the Biological Assay section.
The pIC50 values reported herein were measured as follows.
Biological Assay: LRRK2 Km ATP LanthaScreen™ Assay
Compound potency against LRRK2 kinase activity was determined using LanthaScreen™ technology from Life Technologies Corporation (Carlsbad, CA) using a GST20 tagged truncated human mutant G2019S LRRK2 in the presence of the fluorescein-labeled peptide substrate LRRKtide® (LRRK2 phosphorylated ezrin/radixin/moesin (ERM)), also from Life Technologies. The data presented for the Km ATP LanthaScreen™ Assay represents mean IC50 values based on several test results and may have reasonable deviations depending on the specific conditions and reagents used. Km is the Michaelis constant of an enzyme and is defined as the concentration of native substrate (ATP for a kinase) which permits the enzyme to achieve half Vmax (Vmax=rate of reaction when the enzyme is saturated with substrate). IC50 (half-maximal inhibitory concentration) represents the concentration of inhibitor required to inhibit LRRK2 kinase activity by 50%. Assays were performed in the presence of 134 μM ATP (Km ATP). Upon completion, the assay was stopped, and phosphorylated substrate detected with a terbium (Tb)-labeled anti-pERM antibody (cat. no. PV4898). The compound dose response was prepared by diluting a 10 mM stock of compound to a maximum concentration of 9.99 μM in 100% DMSO, followed by custom fold serial dilution in DMSO nine times. 20 nL of each dilution was spotted via a Labcyte Echo onto a 384-well black-sided plate (Corning 3575) followed by 15 μl of a 1.25 nM enzyme solution in 1× assay buffer (50 mM Tris pH 8.5, 10 mM MgCl2, 0.01% Brij-35, 1 mM EGTA, 2 mM dithiothreitol, 0.05 mM sodium orthovanadate). Following a 15-minute incubation period at RT, the kinase reaction was started with the addition of 5 μl of 400 nM fluorescein-labeled LRRKtide® (LRRK2 phosphorylated ezrin/radixin/moesin (ERM)) peptide substrate and 134 μM ATP solution in 1× assay buffer. The reaction was allowed to progress at ambient temperature for 90 minutes. The reaction was then stopped by the addition of 20 μl of TR-FRET Dilution Buffer (Life Technologies, Carlsbad, CA) containing 2 nM Tb-labeled anti-phospho LRRKtide® (LRRK2 phosphorylated ezrin/radixin/moesin (ERM)) antibody and 10 mM EDTA (Life Technologies, Carlsbad, CA). After an incubation period of 1 h at RT, the plate was read on an EnVision® multimode plate reader (Perkin Elmer, Waltham, MA) with an excitation wavelength of 337 nm (Laser) and a reading emission at both 520 and 495 nm. Compound IC50 values were interpolated from nonlinear regression best-fits of the log of the final compound concentration, plotted as a function of the 520/495-nm emission ratio using activity base “Abase”). […]
A general note: TR-FRET usually uses a lanthanide donor and a delayed reading to cut background.
As to `Cc1cc(Nc2ncc3cc(Cl)c(C4CCN([C@@H]5COC[C@@H]5O)CC4)cc3n2)n(C2CC2)n1` (single isomer, unassigned) [Ex-2.75, (3S,4S) or (3R,4R)4-(4-{6-chloro-2-[(1-cyclopropyl-3-methyl-1H-pyrazol-5-yl)amino]quinazolin-7-yl}piperidin-1-yl)oxolan-3-ol], the “LRRK2 pIC50” value came to 8.63.

As for `[2H]C([2H])([2H])n1ncc(Nc2ncc3cc(Cl)c(C4CCN([C@]5(C)COC[C@@H]5O)CC4)cc3n2)c1Cl` (single isomer, unassigned) [Ex-1.27, (3S,4S) or (3R,4R)-4-(4-(6-chloro-2-((5-chloro-1-(methyl-d3)-1H-pyrazol-4-yl)amino)quinazolin-7-yl)piperidin-1-yl)-4-methyltetrahydrofuran-3-ol], the “LRRK2 pIC50” value is above 9.20.

Consider `COCC12CC(n3ncc(Nc4ncc5cc(Cl)c(C6CCN(C7(C)COC7)CC6)cc5n4)c3Cl)(C1)C2` [Ex-8.39, 6-chloro-N-{5-chloro-1-[3-(methoxymethyl)bicyclo[1.1.1]pentan-1-yl]-1H-pyrazol-4-yl}-7-[1-(3-methyloxetan-3-yl)piperidin-4-yl]quinazolin-2-amine], for which the “LRRK2 pIC50” value is 8.98.

For the compound `Cc1nsc(Nc2ncc3cc(Cl)c([C@@H]4CCN(C5COC[C@H]5O)C[C@H]4F)cc3n2)c1Cl` (single isomer, unassigned) [Ex-4.121, (3S,4S)(3S,4S) or (3S,4S)(3R,4R) or (3R,4R)(3S,4S) or (3R,4R)(3R,4R) 4-{6-chloro-2-[(4-chloro-3-methyl-1,2-thiazol-5-yl)amino]quinazolin-7-yl}-3-fluoropiperidin-1-yl]oxolan-3-ol], the “LRRK2 pIC50” value turned out to be 8.92.

For the compound `CCN1CCC(c2cc3nc(Nc4cnn(CC(C)(C)O)c4Cl)ncc3cc2Cl)CC1` [Ex-4.97, 1-(5-chloro-4-{[6-chloro-7-(1-ethylpiperidin-4-yl)quinazolin-2-yl]amino}-1H-pyrazol-1-yl)-2-methylpropan-2-ol], the “LRRK2 pIC50” value came out at 8.57.

As for `Cc1cc2cnc(Nc3cnn(C4CC4(F)F)c3Cl)nc2cc1[C@@H]1CCN(C2COC[C@H]2O)C[C@H]1F` (single isomer, unassigned) [Ex-4.138, (R)(3S,4S)(3S,4S) or (R)(3S,4S)(3R,4R) or (R)(3R,4R)(3S,4S) or (R)(3R,4R)(3R,4R) or (S)(3S,4S)(3S,4S) or (S)(3S,4S)(3R,4R) or (S)(3R,4R)(3S,4S) or (S)(3R,4R)(3R,4R) 4-[4-(2-{[5-chloro-1-(2,2-difluorocyclopropyl)-1H-pyrazol-4-yl]amino}-6-methylquinazolin-7-yl)-3-fluoropiperidin-1-yl]oxolan-3-ol], the “LRRK2 pIC50” value is on record as 8.44.

In the case of `Cn1ncc(Nc2ncc3cc(Cl)c([C@@H]4CCN([C@H]5COC[C@H]5O)C[C@H]4F)cc3n2)c1Cl` (single isomer, unassigned) [Ex-4.185, (3S,4S)(3S,4S) or (3S,4S)(3R,4R) or (3R,4R)(3S,4S) or (3R,4R)(3R,4R) 4-(4-{6-chloro-2-[(5-chloro-1-methyl-1H-pyrazol-4-yl)amino]quinazolin-7-yl}-3-fluoropiperidin-1-yl)oxolan-3-ol], the “LRRK2 pIC50” value was 9.17.

Regarding `CC(=O)N1CCC(c2cc3nc(Nc4cnn(C5CC5)c4Cl)ncc3cc2Cl)C[C@@H]1C` (some centres unmarked) [Ex-4.8], the “LRRK2 pIC50” value is on record as 7.39.

On to `F[C@H]1CN(C2COC2)CC[C@@H]1c1cc2nc(Nc3cnn(C4CC4)c3Cl)ncc2cc1Cl` (single isomer, unassigned) [Ex-4.35, (3S,4S) or (3R,4R) 6-chloro-N-(5-chloro-1-cyclopropyl-1H-pyrazol-4-yl)-7-[3-fluoro-1-(oxetan-3-yl)piperidin-4-yl]quinazolin-2-amine], for which the “LRRK2 pIC50” value was above 9.20.

For `F[C@H]1CN(C2COC2)C[C@@H]1c1cc2nc(Nc3cnn(C4CC4)c3Cl)ncc2cc1Cl` (single isomer, unassigned) [Ex-4.41, (3S,4R) or (3R,4S) 6-chloro-N-(5-chloro-1-cyclopropyl-1H-pyrazol-4-yl)-7-[4-fluoro-1-(oxetan-3-yl)pyrrolidin-3-yl]quinazolin-2-amine], the “LRRK2 pIC50” value stood at 7.31.

As for `Cc1cc2cnc(Nc3cnn(C4CC4(F)F)c3Cl)nc2cc1[C@H]1CCN(C2COC[C@H]2O)C[C@@H]1F` (single isomer, unassigned) [Ex-4.140, (R)(3S,4S)(3S,4S) or (R)(3S,4S)(3R,4R) or (R)(3R,4R)(3S,4S) or (R)(3R,4R)(3R,4R) or (S)(3S,4S)(3S,4S) or (S)(3S,4S)(3R,4R) or (S)(3R,4R)(3S,4S) or (S)(3R,4R)(3R,4R) 4-[4-(2-{[5-chloro-1-(2,2-difluorocyclopropyl)-1H-pyrazol-4-yl]amino}-6-methylquinazolin-7-yl)-3-fluoropiperidin-1-yl]oxolan-3-ol], the “LRRK2 pIC50” value is 9.19.

With `Cc1cc2cnc(Nc3cnn(C4CC4(F)F)c3Cl)nc2cc1[C@H]1CCN(C2COC[C@@H]2O)C[C@@H]1F` (single isomer, unassigned) [Ex-4.139, (R)(3S,4S)(3S,4S) or (R)(3S,4S)(3R,4R) or (R)(3R,4R)(3S,4S) or (R)(3R,4R)(3R,4R) or (S)(3S,4S)(3S,4S) or (S)(3S,4S)(3R,4R) or (S)(3R,4R)(3S,4S) or (S)(3R,4R)(3R,4R) 4-[4-(2-{[5-chloro-1-(2,2-difluorocyclopropyl)-1H-pyrazol-4-yl]amino}-6-methylquinazolin-7-yl)-3-fluoropiperidin-1-yl]oxolan-3-ol], the “LRRK2 pIC50” value was above 9.20.

As for `Cn1ncc(Nc2ncc3cc(Cl)c([C@@H]4CCN([C@@]5(C)COC[C@H]5O)C[C@H]4F)cc3n2)c1Cl` (single isomer, unassigned) [Ex-4.238, (3S,4S)(3S,4S) or (3S,4S)(3R,4R) or (3R,4R)(3S,4S) or (3R,4R)(3R,4R) 4-(4-{6-chloro-2-[(5-chloro-1-methyl-1H-pyrazol-4-yl)amino]quinazolin-7-yl}-3-fluoropiperidin-1-yl)-4-methyloxolan-3-ol], the “LRRK2 pIC50” value is recorded as 7.40.

With `O=S1(=O)CC(N2CCC(c3cc4nc(Nc5cnn(CC(F)F)c5Cl)ncc4cc3Cl)CC2)C1` [Ex-4.14, 3-(4-(6-chloro-2-((5-chloro-1-(2,2-difluoroethyl)-1H-pyrazol-4-yl)amino)quinazolin-7-yl)piperidin-1-yl)thietane 1,1-dioxide], the “LRRK2 pIC50” value was above 9.20.

For `Cc1c(Nc2ncc3cc(Cl)c(C4CCN(C5CC[C@@H]5O)CC4)cc3n2)cnn1C1CC1` (single isomer, unassigned) [Ex-1.6, (1R,2S) or (1R,2R) or (1S,2S) or (1S,2R) 2-(4-(6-chloro-2-((1-cyclopropyl-5-methyl-1H-pyrazol-4-yl)amino)quinazolin-7-yl)piperidin-1-yl)cyclobutan-1-ol], the “LRRK2 pIC50” value was above 9.20.

Staying with this experiment, now noted: G2019S LRRK2, 134 μM ATP (Km ATP), mean values; read-out: LRRK2 pIC50 (converted).
With `Cc1c(Nc2ncc3cc(Cl)c(C4CCN(CC(O)CC(F)(F)F)CC4)cc3n2)cnn1C1CC1` (single isomer, unassigned) [Ex-4.192, (S) or (R) 1-(4-{6-chloro-2-[(1-cyclopropyl-5-methyl-1H-pyrazol-4-yl)amino]quinazolin-7-yl}piperidin-1-yl)-4,4,4-trifluorobutan-2-ol], the IC50 is 1.74 nM.

Take `CC(C)(O)Cn1ncc(Nc2ncc3cc(Cl)c([C@@H]4CCN(C5(C)COC5)C[C@H]4F)cc3n2)c1Cl` (single isomer, unassigned) [Ex-2.2, (3S,4S) or (3R,4R) 1-(5-chloro-4-((6-chloro-7-(3-fluoro-1-(3-methyloxetan-3-yl)piperidin-4-yl)quinazolin-2-yl)amino)-1H-pyrazol-1-yl)-2-methylpropan-2-ol]: the IC50 was below 0.631 nM.

Values taken from patent US12540131B2 (Merck Sharp & Dohme LLC, priority 2019, dated 2026).
